Measurements as given in patent US11672772B2, “Use of glycyrrhetinic acid, glycyrrhizic acid and related compounds for mitigation and/or treatment of pneumonitis/pneumonia/pulmonary fibrosis induced by virus infection and/or by chemical or biological agents” (priority 2020, dated 2023).

Assays:
[1] = test system: Osimertinib-pneumonitis; type: in vivo, human; details: GR 300 mg/day orally
Protocol: A patient with lung cancer was treated with Osimertinib (80 mg/day), targeting EGFR pathway. […] At this time point, GR (300 mg/day) was orally used and the extent of Osimertinib-pneumonitis was reduced after one month use of GR (FIG. 17 C). Six months after using GR, pneumonitis subsided while Osimertinib was continuously used to target EGFR pathway (FIG. 17 D).

[2] = test system: Bleomycin (BLM) pneumonitis; assay: Bleomycin-induced pneumonitis in ICR mice (new inhalation method), left and right lung lobes; type: in vivo; details: for pathology HE staining of lung: BLM-pneumonitis, GR/GA treatment vs NS; for lung sizes and lung index (lung wet weight/body weight), left and right side: inhaled 110 ul of 5 mg/ml BLM, oral GR 122 mg/kg/day or GA 67 mg/kg/day, three weeks, vs saline (NS)
Protocol: (§1) The subject invention provides an easy-perform mouse model with inhalation of 110-130 ul of liquid dissolved with various chemicals (e.g., anti-cancer drug or toxic paraquat) deep into whole lung to induce chemicals-pneumonitis. Compared with currently used intratracheal instillation, this new method is more quick (finished within 3 minutes) and non-invasion without surgically exposing the trachea. It delivers agents using a micropipette into the trachea at the back of the throat and allows the mouse to inhale into the lung with operator help for liquid deep-even distribution in the whole lung. This easy operation can quickly set-up for more than one hundred mice with chemicals-pneumonitis, providing enough mice for the screening or validating of various chemical or biological agents for anti-lung inflammation/infection to meet clinical needs.
(§2) A. After anesthesia, a rubber band was attached to the front teeth of the mice, and the mouse body was vertically upright. The tip of the tongue was pulled out with forceps, and 100-130 ul of liquid reagent was dripped into the upper part of the trachea at the back of the throat. The reagent was naturally inhaled into the mouse lung. […] Entire process was about one minute.
(§3) B. The mouse held firmly in the hands of the operator, moved up and down for 3-5 times to let the liquid moving deep into the lung, rotated around for 2-3 circles and repeated for 3 times to let the liquid evenly distributed in the lung. Entire process was about one minute.
Then, the mice were randomly divided into three groups (6 mice/group) and orally given different agents: 1) NS: vehicle of saline; 2) GR: 122 mg/kg/day of GR; 3) GA: 67 mg/kg/day of GA. Three weeks later, mice were sacrificed and the lung lobes of left and right sides were harvested separately.

[3] = test system: H1N1 A/FM/1/47; assay: H1N1-pneumonia (H1N1-flu model) in mice; type: in vivo, C57BL/6 mice
[4] = test system: various chemicals-induced pneumonitis (Bleomycin, Cisplatin, 5-Fluorouracil, Mitomycin, Methotrexate, paraquat); assay: Various chemicals-induced pneumonitis in ICR mice; type: in vivo; details: for lung index (lung wet weight/body weight) / WBC number in blood: ICR mice, different time points; for lung index (lung wet weight/body weight): various inhaled chemicals, gavage of GR or GA; for WBC number in blood: gavage 122 mg/kg/day of GR or 67 mg/kg/day of GA within one hour; for number of neutrophils: pneumonitis induced by anticancer agents; for NLR (ratio of neutrophils to lymphocytes): various chemicals-induced pneumonitis; for lymphocytes %: various chemicals-induced pneumonitis incl. 5-FU, BLM and Cisplatin
[5] = test system: BLM-pneumonitis; assay: BLM-pneumonitis in C57BL/6 mice; type: in vivo; details: for mitigation/treatment effect on the severity of BLM-pneumonitis: 3 week period, compared with Dexamethasone; for neutrophils % / lymphocytes % / number of lymphocytes: C57BL/6 mice with BLM-pneumonitis; for lymphocytes % / number of lymphocytes: vs saline-treated; for body weight / dose as low as which could reduce the severity of BLM-pneumonitis: C57BL/6 mice; for body weight: BLM, oral Dexamethasone 1, GR 70, GA 22 mg/kg/day, 2 weeks; for dose as low as which could reduce the severity of BLM-pneumonitis: oral
Protocol: as §1, §2, §3
C57BL/6 mice (8 weeks, male) were anesthetized and inhalated 110 ul of 5 mg/ml Bleomycin (BLM) to induce BLM-pneumonitis (new method in FIG. 2). Then, the mice were randomly divided into groups (7 mice/group) and orally given different agents: 1) Normal: as time control without any treatment; 2) NS: treated with saline as vehicle control (all agents in saline); 3) Dexamethasone: 1 mg/kg/day of Dexamethasone; 4) GR: at the indicated three different doses of GR; 5) GA: at the indicated three different doses of GA. Due to the severe BLM-pneumonitis, the inflammatory factors (such as MPO, IL 6 etc.) were released to cause acute reactions: dilation of alveolar capillaries, increased permeability, plasma exudation, blood cells entering the lung interstitium/alveoli, resulting in an increased wet weight of whole lung. The lung index was calculated as: whole lung wet weight/body weight. The higher of lung index, the severer of pneumonitis.
C57BL/6 mice (8 weeks, male) were anesthetized and inhalated 110 ul of 5 mg/ml Bleomycin (BLM) to induce BLM-pneumonitis (new method in FIG. 2). Then, the mice were randomly divided into four groups and orally given different agents: 1) NS: vehicle of saline; 2) Dexamethasone: 1 mg/kg/day of Dexamethasone; 3) GR: 70 mg/kg/day of GR; 4) GA: 22 mg/kg/day of GA. Due to the severe lung inflammation, the body weights of mice were lost during 2 weeks.

[6] = test system: TGFβ and Collagen I expression in lung tissue; assay: Bleomycin-induced late lung damage, lung tissue q-PCR of pro-fibrosis molecules; type: in vivo, Mice; details: 5 weeks after inhalation
[7] = test system: IL6 and MPO expression in lung tissue; assay: Bleomycin+Paraquat-induced pneumonitis, lung tissue q-PCR of acute inflammation molecules; type: in vivo; details: ICR mice, Bleomycin then paraquat 2 weeks later; sacrificed after 2 weeks
Protocol: ICR mice were inhalated with 130 ul of 5 mg/ml, and then 2 week later 0.1 mg/ml of paraquat with mitigation using GR or GA. After 2 weeks, mice were sacrificed and the lung tissue were examined with q-PCR for the expression of acute inflammation molecules, such as IL6 and MPO.

[8] = test system: H22 liver cancer; assay: Tumor growth in ICR mice bearing H22 liver cancer; type: in vivo; details: GA 40 mg/kg
Protocol: To determine if GR/GA are used for mitigation/treatment of anti-cancer drugs induced pneumonitis has any blocking effect on anticancer, the GA (40 mg/kg) was used in ICR mice bearing with aggressive H22 liver cancer.

[9] = Pharmacokinetics (PK) after oral GR or GA, plasma LC-MS/MS; type: in vivo; details: ICR mice, 400 mg/kg of GR or 224 mg/kg of GA (equal mole)
Protocol: After oral taken, it is converted into GA, an aglycone, fat soluble and easily absorbed through double lipid layer. Therefore, we propose that their pharmacokinetics (PK) should be different. […] 100 μl of plasma was added with 30 μl internal standard solution (100 ng/ml) and then 0.5 ml ethyl acetate. The mixture was vortex mixed for 3 min, centrifuged at 14 000×g for 15 min, and then removed 470 μl of supernatant to dry. After re-dissolved in 100 μl of acetonitrile-water (80[…]20, V/V, mobile phase agent), 20 μl was used for LC-MS/MS analysis.

[10] = test system: H22 tumor; assay: H22 tumor-bearing mice treated with active immunotherapy (H22 vaccine) with GA; type: in vivo
Protocol: To determine if GA affects the anti-cancer immunotherapy, the H22 tumor-bearing mice were immunized with H22 vaccine, and GA (40 mg/kg) was used for anti-inflammation. The traditional Aspirin (60 mg/kg) was used as drug-control.

Molecule | pathology HE staining of lung [2] | lung sizes and lung index (lung wet weight/body weight), left and right side [2] | WBC number ([3]; day 12) | lymphocytes % ([3]; day 12) | lung index (lung wet weight/body weight) [4] | WBC number in blood [4] | number of neutrophils [4] | NLR (ratio of neutrophils to lymphocytes) [4] | lymphocytes % [4] | mitigation/treatment effect on the severity of BLM-pneumonitis [5] | neutrophils % [5] | lymphocytes % [5] | number of lymphocytes [5] | body weight [5] | dose as low as which could reduce the severity of BLM-pneumonitis [5] [mg/kg/day] | Collagen I expression in lung tissue (q-PCR) [6] | TGFb expression in lung tissue (q-PCR) [6] | further results
CC1(C)[C@@H](O[C@H]2O[C@H](C(=O)O)[C@@H](O)[C@H](O)[C@H]2O[C@@H]2O[C@H](C(=O)O)[C@@H](O)[C@H](O)[C@H]2O)CC[C@]2(C)[C@H]3C(=O)C=C4[C@@H]5C[C@@](C)(C(=O)O)CC[C@]5(C)CC[C@@]4(C)[C@]3(C)CC[C@@H]12 [GR, glycyrrhizic acid] | less inflitration of inflammation cells and better lung structure | significantly reduced | reduced WBC number greater than Ribavirin | significantly increased | significantly reduced | reduced | reduced | reduce | increased | better than Dexamethasone | greatly reduced | increased almost to the normal level | increased | helped mice to maintain their body weight | ≤ 40 | reduced | reduced | extent of Osimertinib-pneumonitis ([1]; after one month): reduced; Osimertinib-pneumonitis ([1]; six months, Osimertinib continued): subsided; lymphocytes number ([3]; H1N1-pneumonia, vs NS): increased it in greater degree than Ribavirin; neutrophils % ([3]; H1N1-pneumonia, vs NS): reduced them in greater degree than Ribavirin; neutrophils number ([3]; H1N1-pneumonia, vs NS): reduced them in greater degree than Ribavirin; lung index ([3]; day 7, 2×LD50 virus, GR 70 mg/kg gavage once a day): acted like Ribavirin to reduce the lung index; lymphocytes % ([3]; day 7 of infection): slightly increased; IFNg level ([3]; day 12): much less than that in NS and Ribavirin group; MCP-1 level ([3]; day 12): reduces MCP-1 to a normal level; ratio of neutrophils to lymphocytes (NLR) ([3]; day 12): reduced; spleen index ([3]; day 12): reduced spleen index; lung index ([3]; day 12, 1×LD50 virus): still had a reduced lung index
glycyrrhetinic acid [GA] | less inflitration of inflammation cells and better lung structure | significantly reduced | reduced WBC number greater than Ribavirin | significantly increased | significantly reduced | reduced | reduced | reduce | increased | better than Dexamethasone | greatly reduced | increased almost to the normal level | increased | helped mice to maintain their body weight | ≤ 22 | reduced | reduced | IL6 expression in lung tissue (q-PCR) [7]: reduces; MPO expression in lung tissue (q-PCR) [7]: reduces; growth of tumor [8]: could reduce the growth of cancer in vivo; Tmax [9]: 30 min; survival ([10]; 80 day follow-up, tumor-bearing mice treated with H22 vaccine and GA): could prolong the survival time of mice; effect of combination use on the anti-tumor effect of H22 vaccine ([10]; GA 40 mg/kg with H22 vaccine): not affected
